PubChem BioAssay AID2060509 (Molecular Pharmacology Branch, DTP, NCI, 2025)
“And” between values parts separate entries of the source, which are not always exact repeats. Equal entries are not always repeated.

Test system: 485176-168-R4-J1-PDC spheroids with HUVEC/MSC, viability
Experiment: Anticancer human tumor 485176-168-R4-J1-PDC patient-derived pancreatic adenocarcinoma cell line growth inhibition [GQUAD]
Conditions: for viability, T/C: stronger effect = lower value
Excerpt: DNA G-quadruplex Stabilizer Agents in Combinations in Complex Spheroids
A high-throughput screen of multi-cell type tumor spheroids was designed to identify active combinations of DNA G-quadruplex stabilizer agents and targeted small molecules. Complex spheroids include a stromal component modeled by human endothelial cells (HUVEC) and fibroblasts modeled by human mesenchymal stem cells (MSCs). The concentration ranges selected for each drug and investigational agent were based upon clinically achievable concentrations if the clinical Cmax of the agent was known.
Compounds. The drugs and investigational agents: pidnarulex (CX-5461; NSC782164), APTO-253 (NSC789042), BRACO-19 (NSC847499), peposertib (NSC802822), ceralasertib (NSC780249), elimusertib (NSC800525), camonsertib (NSC841442), AZD-1390 (NSC803789), olaparib (NSC753686), talazoparib (NSC767125), ART-558 (NSC835418), sotorasib (NSC818433), MRTX-1133 (NSC836407), SN-38 (NSC673596), topotecan (NSC609699), etoposide (NSC141540), doxorubicin (NSC123127), gemcitabine (NSC613327), 5-fluorouracil (NSC19893), paclitaxel (NSC125973), vemurafenib (NSC761431), panobinostat (NSC761190), R-306465 (JNJ-16241199; NSC773264), adavosertib (NSC754352), TP-3654 (NSC805149), carboplatin (NSC241240), KSQ-4279 (NSC840948), and staurosporine (NSC755774) were obtained from the National Cancer Institute (NCI) Developmental Therapeutics Program Chemical Repository (34). The FDA-approved anticancer drug set is available from the NCI Developmental Therapeutics Program. […] The stock solutions were prepared in dimethyl sulfoxide (DMSO, Sigma-Aldrich, St. Louis, MO, cat. D2650) at 800-fold the tested concentration and stored at -70 degrees C prior to their use. All drugs and investigational agents were tested over a range starting from a high concentration at or near the clinical Cmax and decreasing in half-log increments. If the clinical Cmax for an agent had not been determined, the highest concentration tested was 10 microM.
2.3 Cell Culture. All cells were maintained in an incubator at 37 degrees C and 5% CO2 with 95% humidity. The PDC lines were cultured according to standard operating procedures established by the NCI PDMR. All PDCs were thawed and cultured in Matrigel-coated flasks prepared with a working solution of 1X Ham's F-12 nutrient mix, without supplementation (Invitrogen, cat. 11765054), 100 U/mL penicillin-streptomycin (Invitrogen, cat. 15140122), and 2.5% Matrigel (Corning Inc., cat. 354248) for the first three passages. The 857933-349-R-J2-PDC line was cultured in 6C/Colon 1B media, which includes advanced DMEM/F-12 (Thermo Fisher Scientific, cat. 12634028), 10 mM HEPES (Thermo Fisher Scientific, cat. 15630080), 1X GlutaMAX supplement (Thermo Fisher Scientific, cat. 35050061), 0.1 mg/mL primocin (InvivoGen, cat. ant-pm-2), 10% defined fetal bovine serum, heat inactivated (HyClone Laboratories Inc., cat. SH30070.03HI), 50% L-WRN conditioned media (ATCC, cat. CRL-3276), 1.25 mM N-Acetyl-L-cysteine (Sigma-Aldrich, cat. A9165), 10 mM nicotinamide (Sigma-Aldrich, cat. N0636), 1X B-27 supplement (Thermo Fisher Scientific, cat. 17504044), 1X N-2 supplement (Thermo Fisher Scientific, cat. 17502048), 10 microM Y-27632 dihydrochloride (Tocris Bioscience, cat. 1254), and 50 ng/mL human EGF recombinant protein (Thermo Fisher Scientific, cat. PHG0311). The 485176-168-R4-J1-PDC line was cultured in Panc media, which includes all 6C/Colon 1B media components plus 100 ng/mL human FGF-10 (Thermo Fisher Scientific, cat. 100-26), 500 nM SB-431542 (Selleckchem, cat. S1067), and gastrin (Tocris, cat. 3006).
[…]

[1] = curve of first compound, second compound 0.0316 µM
[2] = curve of first compound, second compound 0.1 µM
[3] = curve of first compound, second compound 0.316 µM
[4] = curve of first compound, second compound 1 µM
[5] = curve of first compound, second compound 3.16 µM
[6] = curve of first compound, second compound 10 µM
[7] = second compound 0.0316 µM, first compound 0.0316 µM
[8] = second compound 0.0316 µM, first compound 0.316 µM
[9] = second compound 0.1 µM, first compound 0.0316 µM
[10] = second compound 0.1 µM, first compound 0.316 µM
[11] = second compound 0.316 µM, first compound 0.0316 µM
[12] = second compound 0.316 µM, first compound 0.316 µM
[13] = second compound 1 µM, first compound 0.0316 µM
[14] = second compound 1 µM, first compound 0.316 µM
[15] = second compound 3.16 µM, first compound 0.0316 µM
[16] = second compound 3.16 µM, first compound 0.316 µM
[17] = second compound 10 µM, first compound 0.0316 µM
[18] = second compound 10 µM, first compound 0.316 µM
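Further: spheroids exposed to compounds for seven days before readout.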
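Wherever viability, T/C is given: percent viability relative to DMSO vehicle control wells as 100%.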

## Cc1[nH]c2ccccc2c1CCNCc1ccc(/C=C/C(=O)NO)cc1 + Cc1cnc(CNC(=O)c2c(=O)c3ccc(N4CCCN(C)CC4)nc3n3c2sc2ccccc23)cn1
[1]
  IC50: 0.094 µM
[2]
  IC50: 0.0392 µM
[3]
  IC50: 0.011 µM
[4]
  IC50: < 0.000999 µM
[5]
  IC50: < 0.000999 µM
[6]
  IC50: < 0.000999 µM
Second compound 0.0316 µM, first compound 0.000999 µM
  viability, T/C: 99.4%
Second compound 0.0316 µM, first compound 0.00316 µM
  viability, T/C: 74.4%
Second compound 0.0316 µM, first compound 0.00999 µM
  viability, T/C: 85.6%
[7]
  viability, T/C: 60.5%
Second compound 0.0316 µM, first compound 0.0999 µM
  viability, T/C: 57.5%
[8]
  viability, T/C: 12.1%
Second compound 0.1 µM, first compound 0.000999 µM
  viability, T/C: 74.5%
Second compound 0.1 µM, first compound 0.00316 µM
  viability, T/C: 89.6%
Second compound 0.1 µM, first compound 0.00999 µM
  viability, T/C: 49.4%
[9]
  viability, T/C: 51.7%
Second compound 0.1 µM, first compound 0.0999 µM
  viability, T/C: 44.3%
[10]
  viability, T/C: 9.46%
Second compound 0.316 µM, first compound 0.000999 µM
  viability, T/C: 63.3%
Second compound 0.316 µM, first compound 0.00316 µM
  viability, T/C: 59.6%
Second compound 0.316 µM, first compound 0.00999 µM
  viability, T/C: 53.5%
[11]
  viability, T/C: 35.3%
Second compound 0.316 µM, first compound 0.0999 µM
  viability, T/C: 27.2%
[12]
  viability, T/C: 6.34%
Second compound 1 µM, first compound 0.000999 µM
  viability, T/C: 44.6%
Second compound 1 µM, first compound 0.00316 µM
  viability, T/C: 52.6%
Second compound 1 µM, first compound 0.00999 µM
  viability, T/C: 45.4%
[13]
  viability, T/C: 30.7%
Second compound 1 µM, first compound 0.0999 µM
  viability, T/C: 23.8%
[14]
  viability, T/C: 0.94%
Second compound 3.16 µM, first compound 0.000999 µM
  viability, T/C: 47.2%
Second compound 3.16 µM, first compound 0.00316 µM
  viability, T/C: 39.2%
Second compound 3.16 µM, first compound 0.00999 µM
  viability, T/C: 45%
[15]
  viability, T/C: 33.1%
Second compound 3.16 µM, first compound 0.0999 µM
  viability, T/C: 14%
[16]
  viability, T/C: 0.27%
Second compound 10 µM, first compound 0.000999 µM
  viability, T/C: 36.2%
Second compound 10 µM, first compound 0.00316 µM
  viability, T/C: 37.5%
Second compound 10 µM, first compound 0.00999 µM
  viability, T/C: 32.5%
[17]
  viability, T/C: 26.5%
Second compound 10 µM, first compound 0.0999 µM
  viability, T/C: 11.1%
[18]
  viability, T/C: 0.69%

## Nc1ccn(C2OC(CO)C(O)C2(F)F)c(=O)n1 (stereo unspecified)
Compound 0.0316 µM
  viability, T/C: 76.8% and 70.1% and 75.6%
Compound 0.1 µM
  viability, T/C: 16.7% and 16.1% and 15.4%
Compound 0.316 µM
  viability, T/C: 11.3% and 7.32% and 9.64%
Compound 1 µM
  viability, T/C: 10.3% and 9.3% and 8.42%
Compound 3.16 µM
  viability, T/C: 10.7% and 12.2% and 11.5%
Compound 10 µM
  viability, T/C: 13% and 12.5% and 11.1%
Curve of compound
  IC50: 0.0529 µM and 0.0484 µM and 0.0516 µM

## COc1cc(C2c3cc4c(cc3C(OC3OC5COC(C)OC5C(O)C3O)C3COC(=O)C23)OCO4)cc(OC)c1O (stereo unspecified) + CN(C)c1ccc(Nc2c3ccc(NC(=O)CCN4CCCC4)cc3nc3cc(NC(=O)CCN4CCCC4)ccc23)cc1
[1]
  IC50: 0.34 µM
[2]
  IC50: 0.476 µM
[3]
  IC50: 0.474 µM
[4]
  IC50: 0.412 µM
[5]
  IC50: 0.333 µM
[6]
  IC50: 0.303 µM
[7]
  viability, T/C: 87%
Second compound 0.0316 µM, first compound 0.1 µM
  viability, T/C: 74.7%
[8]
  viability, T/C: 38.9%
Second compound 0.0316 µM, first compound 1 µM
  viability, T/C: 39.6%
Second compound 0.0316 µM, first compound 3.16 µM
  viability, T/C: 30.1%
Second compound 0.0316 µM, first compound 10 µM
  viability, T/C: 9.84%
[9]
  viability, T/C: 89.6%
Second compound 0.1 µM, first compound 0.1 µM
  viability, T/C: 82.8%
[10]
  viability, T/C: 46.4%
Second compound 0.1 µM, first compound 1 µM
  viability, T/C: 41.2%
Second compound 0.1 µM, first compound 3.16 µM
  viability, T/C: 29.2%
Second compound 0.1 µM, first compound 10 µM
  viability, T/C: 12.1%
[11]
  viability, T/C: 98.8%
Second compound 0.316 µM, first compound 0.1 µM
  viability, T/C: 81.5%
[12]
  viability, T/C: 47.5%
Second compound 0.316 µM, first compound 1 µM
  viability, T/C: 42.2%
Second compound 0.316 µM, first compound 3.16 µM
  viability, T/C: 26.3%
Second compound 0.316 µM, first compound 10 µM
  viability, T/C: 10.1%
[13]
  viability, T/C: 90.6%
Second compound 1 µM, first compound 0.1 µM
  viability, T/C: 71.6%
[14]
  viability, T/C: 50.6%
Second compound 1 µM, first compound 1 µM
  viability, T/C: 39.1%
Second compound 1 µM, first compound 3.16 µM
  viability, T/C: 24.6%
Second compound 1 µM, first compound 10 µM
  viability, T/C: 9.92%
[15]
  viability, T/C: 75.5%
Second compound 3.16 µM, first compound 0.1 µM
  viability, T/C: 63.7%
[16]
  viability, T/C: 44.5%
Second compound 3.16 µM, first compound 1 µM
  viability, T/C: 39.5%
Second compound 3.16 µM, first compound 3.16 µM
  viability, T/C: 33.6%
Second compound 3.16 µM, first compound 10 µM
  viability, T/C: 12.8%
[17]
  viability, T/C: 95.5%
Second compound 10 µM, first compound 0.1 µM
  viability, T/C: 69.8%
[18]
  viability, T/C: 45.3%
Second compound 10 µM, first compound 1 µM
  viability, T/C: 36.9%
Second compound 10 µM, first compound 3.16 µM
  viability, T/C: 23.4%
Second compound 10 µM, first compound 10 µM
  viability, T/C: 10.2%
